Assay results reported in paper PMC12408352, “Complete biosynthesis of salicylic acid from phenylalanine in plants” (Nature, 2025).

Experiments:
Format in all cases: biochemical
PhCHD, MBP-PhCHD = biological target: T1, PhCHD, MBP-PhCHD (Petunia x hybrida, UniProt J9YIZ4); experiment: product detection by LC-UV-MS; settings: positive control; AIM1 assay conditions, 0.5 mM CA-CoA, 1 mM NAD+, Tris-HCl pH 7.5, 30 °C
T1 construct: gene CHD; synthesized gene in pMAL-c5X, MBP fusion, E. coli BL21 (DE3), amylose resin
T1 sequence (J9YIZ4 1-724): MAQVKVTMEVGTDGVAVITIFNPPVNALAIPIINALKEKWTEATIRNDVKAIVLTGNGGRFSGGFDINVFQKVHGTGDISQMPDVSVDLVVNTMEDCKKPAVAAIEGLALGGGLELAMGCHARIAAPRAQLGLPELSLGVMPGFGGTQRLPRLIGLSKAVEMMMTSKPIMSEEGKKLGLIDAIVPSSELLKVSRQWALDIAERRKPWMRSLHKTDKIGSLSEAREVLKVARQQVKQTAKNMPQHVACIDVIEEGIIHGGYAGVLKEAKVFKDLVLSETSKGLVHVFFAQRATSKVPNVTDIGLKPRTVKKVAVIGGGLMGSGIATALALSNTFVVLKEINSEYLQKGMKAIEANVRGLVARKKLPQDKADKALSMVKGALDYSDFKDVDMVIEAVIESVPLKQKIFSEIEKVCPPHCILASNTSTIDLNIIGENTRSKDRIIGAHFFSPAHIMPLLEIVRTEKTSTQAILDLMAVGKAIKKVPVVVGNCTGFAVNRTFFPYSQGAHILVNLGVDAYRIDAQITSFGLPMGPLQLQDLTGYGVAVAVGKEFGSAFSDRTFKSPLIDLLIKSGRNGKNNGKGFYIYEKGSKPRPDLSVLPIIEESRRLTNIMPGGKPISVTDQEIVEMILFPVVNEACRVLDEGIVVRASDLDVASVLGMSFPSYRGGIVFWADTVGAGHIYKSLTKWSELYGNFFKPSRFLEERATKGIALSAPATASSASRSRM

AIM1 (OsCHD), MBP-AIM1 = biological target: T2, AIM1 (OsCHD), MBP-AIM1 (Oryza sativa, UniProt Q8W1L6); experiment: product detection by LC-UV-MS; settings: 0.5 mM CA-CoA, 1 mM NAD+, 100 mM Tris-HCl pH 7.5, MgCl2, KCl, pyruvate / lactate dehydrogenase, 30 °C
T2 construct: gene MFP; CDS from rice cDNA in pMAL-c2X, MBP fusion, E. coli BL21 (DE3), amylose resin
T2 sequence (Q8W1L6 1-726): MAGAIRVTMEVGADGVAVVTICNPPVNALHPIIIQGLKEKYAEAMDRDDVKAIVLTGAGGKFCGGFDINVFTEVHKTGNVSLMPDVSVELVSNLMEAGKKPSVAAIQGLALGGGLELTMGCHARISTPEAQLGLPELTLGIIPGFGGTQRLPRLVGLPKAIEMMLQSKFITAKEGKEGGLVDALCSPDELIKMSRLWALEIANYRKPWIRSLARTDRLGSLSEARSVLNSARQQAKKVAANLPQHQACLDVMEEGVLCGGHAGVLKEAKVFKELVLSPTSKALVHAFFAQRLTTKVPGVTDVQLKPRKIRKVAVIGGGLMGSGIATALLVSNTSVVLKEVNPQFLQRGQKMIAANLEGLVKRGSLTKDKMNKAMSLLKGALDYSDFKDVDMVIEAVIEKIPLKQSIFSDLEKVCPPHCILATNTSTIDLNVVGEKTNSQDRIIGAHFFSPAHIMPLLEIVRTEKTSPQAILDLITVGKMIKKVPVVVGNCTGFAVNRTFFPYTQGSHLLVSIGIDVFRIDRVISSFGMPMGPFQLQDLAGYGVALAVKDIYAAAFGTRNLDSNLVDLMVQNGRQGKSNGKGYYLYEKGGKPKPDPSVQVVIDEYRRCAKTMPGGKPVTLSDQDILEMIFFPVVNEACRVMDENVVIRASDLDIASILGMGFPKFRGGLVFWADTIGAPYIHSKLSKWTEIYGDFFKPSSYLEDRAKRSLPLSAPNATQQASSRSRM

OSD3, Flag-OSD3 = biological target: T3, OSD3, Flag-OSD3 (Oryza sativa, UniProt Q69P73); experiment: product detection by LC-UV-MS, yeast microsomes; settings: 50 µM BB, 5 mM NADPH, 80 mM sodium phosphate pH 7.0, 5 mM DTT, 30 °C
T3 construct: gene Os09g0441400; Flag fusion in pESC-URA, microsomes of yeast strain WAT11
T3 sequence (Q69P73 1-514): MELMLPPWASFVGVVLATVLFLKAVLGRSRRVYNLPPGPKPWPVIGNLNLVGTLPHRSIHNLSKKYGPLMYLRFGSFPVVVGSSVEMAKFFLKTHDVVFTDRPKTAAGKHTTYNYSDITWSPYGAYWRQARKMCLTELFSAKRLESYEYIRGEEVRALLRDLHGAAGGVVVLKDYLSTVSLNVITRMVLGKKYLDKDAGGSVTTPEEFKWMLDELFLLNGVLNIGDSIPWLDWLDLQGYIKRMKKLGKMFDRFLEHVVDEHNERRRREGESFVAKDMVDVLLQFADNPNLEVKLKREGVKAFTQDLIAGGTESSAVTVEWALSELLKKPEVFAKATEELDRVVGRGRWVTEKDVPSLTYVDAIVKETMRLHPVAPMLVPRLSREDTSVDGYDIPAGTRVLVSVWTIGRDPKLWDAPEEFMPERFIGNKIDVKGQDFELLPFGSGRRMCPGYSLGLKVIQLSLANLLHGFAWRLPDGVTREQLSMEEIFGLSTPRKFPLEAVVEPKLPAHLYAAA

## CC(C)(COP(=O)(O)OP(=O)(O)OC[C@H]1O[C@@H](n2cnc3c(N)ncnc32)[C@H](O)[C@@H]1OP(=O)(O)O)[C@@H](O)C(=O)NCCC(=O)NCCSC(=O)/C=C/c1ccccc1 [cinnamoyl-CoA]
PhCHD, MBP-PhCHD
  product detection by LC-UV-MS: The MBP–PhCHD enzyme was used as a positive control
AIM1 (OsCHD), MBP-AIM1
  product detection by LC-UV-MS: AIM1 functions as a CA-CoA hydratase-dehydrogenase for converting CA-CoA to BAc-CoA

## O=C(OCc1ccccc1)c1ccccc1O [benzyl salicylate]
OSD3, Flag-OSD3
  product detection by LC-UV-MS, yeast microsomes: to catalyse the hydroxylation of BB, yielding BS

## O=C(OCc1ccccc1)c1ccccc1 [benzyl benzoate]
OSD3, Flag-OSD3
  product detection by LC-UV-MS, yeast microsomes: OSD3 acts as a benzyl benzoate 2-hydroxylase (BB2H) to catalyse the hydroxylation of BB

## CC(C)(COP(=O)(O)OP(=O)(O)OC[C@H]1O[C@@H](n2cnc3c(N)ncnc32)[C@H](O)[C@@H]1OP(=O)(O)O)[C@@H](O)C(=O)NCCC(=O)NCCSC(=O)CC(=O)c1ccccc1 [benzoylacetyl-CoA]
PhCHD, MBP-PhCHD
  product detection by LC-UV-MS: used it to produce a BAc-CoA standard
AIM1 (OsCHD), MBP-AIM1
  product detection by LC-UV-MS: confirming the product of AIM1 as BAc-CoA
